Source: article PMC8037182, “Solvothermal Synthesis of Multiple Dihydropyrimidinones at a Time as Inhibitors of Eg5” (Molecules, 2021)

Target: T1, Eg5 motor protein (Homo sapiens, UniProt P52732)
T1 construct: Eg5 motor domain (amino acids 1-368) was cloned into pET22b; His-tag (C); made in house; host or cells: Escherichia coli BL21 (DE3)
T1 sequence (P52732 1-368): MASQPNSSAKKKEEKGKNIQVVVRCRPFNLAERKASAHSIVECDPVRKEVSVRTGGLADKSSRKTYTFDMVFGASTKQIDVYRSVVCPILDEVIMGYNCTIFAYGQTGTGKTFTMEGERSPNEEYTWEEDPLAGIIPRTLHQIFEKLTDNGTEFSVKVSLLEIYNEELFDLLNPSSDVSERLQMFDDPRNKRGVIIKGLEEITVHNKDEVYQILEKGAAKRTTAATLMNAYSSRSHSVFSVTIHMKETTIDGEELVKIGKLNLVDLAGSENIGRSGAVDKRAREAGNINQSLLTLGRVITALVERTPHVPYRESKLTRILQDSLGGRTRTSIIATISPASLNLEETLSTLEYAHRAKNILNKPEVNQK
Experiment: Lineweaver–Burk plot analysis of Eg5 ATPase inhibition
Format: biochemical
Method: Assays followed methods similar to that described above for the primary Eg5 motor protein ATPase assay. For either study, compound C9 were tested at 60.50 μM, 30.25 μM, 15.13 μM, 0 μM. ATP concentration was varied from 52 μM to 417 μM. The enzyme concentration tested was 100 nM. All conditions were performed in three independent duplicate experiments. The data were analyzed with GraphPad Prism 6.02 software.
Figure 1 Steady-state inhibition of Eg5 by C9. […] Lines represent a curve fit of the global data set to a mixed-type inhibition model.

- Slope of the Lineweaver-Burk plot, Mean (C9 15.13 uM): 0.649
- OD630 Value Mean (C9 15.13 uM, ATP 0.052 mM): 0.142
- OD630 Value Mean (C9 15.13 uM, ATP 0.104 mM): 0.177
- OD630 Value Mean (C9 15.13 uM, ATP 0.209 mM): 0.199
- OD630 Value Mean (C9 15.13 uM, ATP 0.313 mM): 0.226
- OD630 Value Mean (C9 15.13 uM, ATP 0.417 mM): 0.268
- Slope of the Lineweaver-Burk plot, Mean (C9 30.25 uM): 0.942
- OD630 Value Mean (C9 30.25 uM, ATP 0.052 mM): 0.126
- OD630 Value Mean (C9 30.25 uM, ATP 0.104 mM): 0.155
- OD630 Value Mean (C9 30.25 uM, ATP 0.209 mM): 0.174
- OD630 Value Mean (C9 30.25 uM, ATP 0.313 mM): 0.197
- OD630 Value Mean (C9 30.25 uM, ATP 0.417 mM): 0.231
- Slope of the Lineweaver-Burk plot, Mean (C9 60.50 uM): 1.374
- OD630 Value Mean (C9 60.5 uM, ATP 0.052 mM): 0.114
- OD630 Value Mean (C9 60.5 uM, ATP 0.104 mM): 0.138
- OD630 Value Mean (C9 60.5 uM, ATP 0.209 mM): 0.156
- OD630 Value Mean (C9 60.5 uM, ATP 0.313 mM): 0.171
- OD630 Value Mean (C9 60.5 uM, ATP 0.417 mM): 0.198
- type of Eg5 inhibition (Lineweaver–Burk plot, ATP varied 52–417 μM): mixed-type Eg5 inhibitor
- Ki (secondary plot of Lineweaver–Burk plot, slope versus concentration): 15.7 µM
SMILES: CCOc1ccccc1C1NC(=S)NC(C)=C1C(=O)Nc1ccc(Cl)cc1 (centres unmarked) [C9]
